The values that follow come from publication PMC8667043, “First-in-Class Inhibitors of the Ribosomal Oxygenase MINA53” (Journal of Medicinal Chemistry, 2021).

One assay has as its system HT-29 colon carcinoma. The experiment in a line: MTT cell viability assay. The assay is classed as cell-based, human. Conditions: 72, 96, 120 h, 10 to 100 μM, 10′ to a similar extent as 10. How it is done:
(§1) Human commercially available established cancer cell lines HT-29 colon carcinoma (ATCC, HTB-38), U-87MG glioblastoma (ATCC, HTB-14), and MNK-45 gastric cancer (a gift from Dr. M. Broggini, Mario Negri Institute) were cultured in RPMI medium (Euroclone, Milan, IT) supplemented with 10% inactivated fetal bovine serum (HyClone, Thermo Scientific, South Logan, UT), 1% L-glutamine (Euroclone), and 100 μg/mL penicillin/streptomycin (Euroclone). HEK293T and HeLa cells were cultured in Dulbecco’s Modified Eagle Medium (DMEM, Gibco) supplemented with 10% (v/v) fetal bovine serum (FBS, Sigma) and 100 international units/mL (IU/mL) penicillin and 100 μg/mL streptomycin (Gibco). The cells were routinely tested for mycoplasma contamination and STR-authenticated.
(§2) Twenty-four hours following seeding, exponentially growing cells were treated with the different compounds at concentrations ranging from 10 to 100 μM for 72–120 h. Aqueous DMSO (0.5%, v/v) was used as a control (untreated). Cell viability was determined by the 3-(4,5-dimethylthiazol-2-yl)-2,5-diphenyltetrazolium bromide (MTT) colorimetric assay (Sigma-Aldrich). In summary, exponentially growing cancer cells were seeded in sextuplicate in 96-well culture plates (1.5 × 10^3 cells/well). After 24 h, the compounds were added at concentrations ranging from 10 to 100 μM. The effect of compounds on cancer cell proliferation was assessed by measuring the MTT dye absorbance of the cells as reported.[52] For combination treatments, the cells were treated with each of three compounds, either alone or in combination with doxorubicin. In particular, U-87MG cells were treated with doxorubicin alone or in combination with different MINA53 inhibitors for 24 h. The effect of different compounds or combinations (drug concentration ratio 1:20, doxorubicin: compound) on U-87MG cancer cell viability was assessed by measuring the MTT dye absorbance of cells. The interaction between doxorubicin (Doxo) and different compounds was evaluated based on the combination index (CI) using the CI equation through CalcuSyn software (Biosoft, Cambridge, U.K.). Synergism CI < 0.9, additivity 0.9 < CI < 1.1, antagonism CI > 1.1.

The next assay deals with MNK-45 gastric carcinoma. The experiment in a line: MTT cell viability assay. To be noted: 72, 96, 120 h, 10 to 100 μM, 10′ to a similar extent as 10. The assay is classed as cell-based, human. As to the method:
as §1, §2

The next assay relates to U-87MG malignant glioma. The experiment in a line: MTT cell viability assay. The assay is classed as cell-based, human. Conditions: 72, 96, 120 h, 10 to 100 μM, 10′ to a similar extent as 10. As to the method:
as §1, §2

A further assay has as its system HeLa cervical carcinoma. The experiment in a line: MTT cell viability assay. Conditions: 72, 96, 120 h. The format is cell-based. How it is done:
as §1
as §2, with “For combination treatments, the cells were treated with each of three compounds, either alone or in combination with doxorubicin. In particular, U-87MG cells were treated with doxorubicin alone or in combination with different MINA53 inhibitors for 24 h.” left out, “Synergism CI < 0.9, additivity 0.9 < CI < 1.1, antagonism CI > 1.1.” left out
(§3) Figure S17. Antiproliferative effects of M INA53 inhibitors on HeLa (A) and HEK293T (B) cells as determined by the MTT method after exposure for 72, 96, and 120 h to the negative control 1, and the MINA53 inhibitors 9 and 10. […]

A further assay has as its system HEK293T. The experiment in a line: MTT cell viability assay. The format is cell-based, human. To be noted: 72, 96, 120 h. As to the method: as §1
as §2, with “For combination treatments, the cells were treated with each of three compounds, either alone or in combination with doxorubicin. In particular, U-87MG cells were treated with doxorubicin alone or in combination with different MINA53 inhibitors for 24 h.” left out, “Synergism CI < 0.9, additivity 0.9 < CI < 1.1, antagonism CI > 1.1.” left out
as §3

For another assay, the target named is T1, HA-tagged MINA53 (Homo sapiens, UniProt Q8IUF8).
T1 construct: expressed in transfected cells; host or cells: HEK293T, HeLa, U-87MG (transient, pEF6 vector)
T1 sequence (Q8IUF8 whole entry): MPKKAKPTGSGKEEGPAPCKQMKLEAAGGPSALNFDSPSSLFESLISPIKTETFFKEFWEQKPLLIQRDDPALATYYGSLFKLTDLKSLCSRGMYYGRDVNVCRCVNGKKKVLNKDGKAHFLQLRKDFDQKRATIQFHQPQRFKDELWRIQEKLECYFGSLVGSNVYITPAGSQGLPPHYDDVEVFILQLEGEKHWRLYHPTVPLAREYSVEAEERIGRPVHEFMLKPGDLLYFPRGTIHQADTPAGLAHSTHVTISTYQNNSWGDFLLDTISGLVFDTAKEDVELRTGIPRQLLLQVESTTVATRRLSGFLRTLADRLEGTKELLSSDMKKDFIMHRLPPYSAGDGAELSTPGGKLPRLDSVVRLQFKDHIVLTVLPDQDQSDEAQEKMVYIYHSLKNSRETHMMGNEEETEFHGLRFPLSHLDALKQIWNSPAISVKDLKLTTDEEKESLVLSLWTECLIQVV
The experiment in a line: Substrate trapping by anti-HA immunoprecipitation (RPL27A). The format is cell-based. Conditions: HEK293T, HeLa, U-87MG cells; 100 μM, 18 h. How it is done: Proteins were transferred onto nitrocellulose or PVDF membranes and incubated with rabbit γ-H2AX (#9718, Cell Signaling Technologies, MA) anti-GAPDH (Sc47724, Santa Cruz Biotechnology, Santa Cruz, CA), rabbit anti-RPL27A (Abcam, ab74731), goat anti-RPL8 (Abcam, ab63941), horseradish peroxidase (HRP)-conjugated anti-HA (Roche, 12013819001), and HRP-conjugated anti-β-actin (Abcam, ab-49900).
For immunoprecipitation, the cells were harvested on ice and lysed by rotation for 1 h at 4 °C in JIES buffer. The cell debris was subsequently pelleted by centrifugation (10 min at 21 910g at 4 °C), and the supernatant was incubated overnight at 4 °C with Pierce anti-HA agarose beads (Thermo Scientific, 26181). The next day, the beads were washed 6 times with JIES buffer before the immunoprecipitates were eluted for 15 min at 1400 rpm at room temperature using 1 mg/mL HA peptide (Thermo Scientific, 26184) dissolved in JIES buffer. The eluted samples were then prepared in 1× Laemmli loading buffer (6x: 125 mM Tris-HCl [pH 6.8], 6% (w/v) SDS, 50% (v/v) glycerol, 225 mM dithiothreitol (DTT), and 0.1% (w/v) bromophenol blue) and boiled for 5 min for detection by western blot.
Plasmid DNA transfections were performed using a FuGENE 6 transfection reagent (Promega, E2691). Briefly, a transfection mix of DNA and transfection reagent at a ratio of 1:3 was made up in Opti-MEM (Gibco, 31985070) and incubated for 30 min at room temperature before the complexes were added to the cells. A total of 500 ng of DNA was used per mL of culturing medium. The cells were seeded 24 h prior to transfection, and cell treatments were performed 24 h post-transfection.
Figure S18. MINA53 substrate trapping with inhibitors 9 and 10 in cells. HEK293T (A), HeL a (B) and U-87MG (C) cel ls transiently expressing an empty (EV), wild- type (WT) or catalytically […]
control for 18 h prior toanti -HAimmunoprecipitation (IP). Anti -HA IPs were immunoblotted for RPL27A (17 kDa) and HA. β -Actin was used as loading control. […]

Assay [1] relates to U-87MG cells. The experiment in a line: MTT cell viability, alone or in combination with doxorubicin; combination index. The format is cell-based, human. To be noted: for cell viability reduction in cotreatment with doxorubicin: 1 μM doxorubicin + 20 μM compound; for cell viability reduction in cotreatment with doxorubicin / cell viability, single compound treatment / sensitization of U-87MG cells to doxorubicin: 24 h; for combination index value with doxorubicin: less than 1 synergistic, higher than 1 antagonist. As to the method:
as §2

The test system of assay [2] is U-87MG cells. The experiment in a line: Flow cytometric analysis of cell cycle distribution and Sub-G1 peak (PI staining). To be noted: 24 h; for percentage of apoptotic cells (Sub-G1), with doxorubicin: 10 μM compound + doxorubicin 0.5 μM; for accumulation of cells in the G2/M phase of the cell cycle / percentage of apoptotic cells (Sub-G1), compound alone: 10 μM. The assay is classed as cell-based, human. As to the method:
Cell cycle distribution and apoptosis were assayed by staining floating and adherent cells with propidium iodide ([…] RNase A and 20 μg/mL propidium iodide) for 45 min. Flow cytometric analyses were performed using Epics XL apparatus (Beckman Coulter). Ten thousand events were collected from each sample, and data were processed using Flowing software.

Structures are written as SMILES.

Turning to `O=C(O)c1cnc(SCCCc2ccccc2)[nH]c1=O` [compound 10, 2-((3-Phenylpropyl)thio)-3,4-dihydro-4-oxopyrimidine-5-carboxylic Acid], the “effect on cell viability, HT-29” value with HT-29 colon carcinoma is recorded as “only a marginal effect”. The “effect on cell viability, MNK-45” value in the assay on MNK-45 gastric carcinoma is given as “sensitive”. Besides, in the assay on U-87MG malignant glioma, the “effect on cell viability, U-87MG” value is on record as “sensitive”. For the same compound, in the assay on HeLa cervical carcinoma, the “effect on cell viability, HeLa” value was “sensitive”. Moreover, the “effect on cell viability, HEK293T” value in the assay on HEK293T is recorded as “sensitivity”. The “binding (trapping) of endogenous RPL27A substrate to HA-tagged MINA53” value (shortened to “binding (trapping)”) on HA-tagged MINA53 was “increased binding”. Further, in the assay on U-87MG cells [1], the “cell viability reduction in cotreatment with doxorubicin” value is given as “around 75%”; the “cell viability, single compound treatment” value was “reduced cell viability in a dose-dependent manner”; the “sensitization of U-87MG cells to doxorubicin” value is given as “dose-dependent sensitization”; the “combination index value with doxorubicin” value was “less than 1”. In addition, in the assay on U-87MG cells [2], the “percentage of apoptotic cells (Sub-G1), with doxorubicin” value was “about 60%”; the “accumulation of cells in the G2/M phase of the cell cycle” value (from here on “accumulation of cells”) is on record as “induced accumulation of cells in the G2/M phase”; the “percentage of apoptotic cells (Sub-G1), compound alone” value is reported as “about 30%”.
As for `O=C(O)c1c[nH]c(=S)[nH]c1=O` [compound 1], in the assay with HT-29 colon carcinoma, the “effect on cell viability, HT-29” value is on record as “no effect”. In addition, the “effect on cell viability, MNK-45” value in the assay with MNK-45 gastric carcinoma is recorded as “no effect”. Besides, the “effect on cell viability, U-87MG” value with U-87MG malignant glioma is recorded as “no effect”. Moreover, the “effect on cell viability, HeLa” value with HeLa cervical carcinoma is recorded as “no effect”. Besides, the “effect on cell viability, HEK293T” value in the assay on HEK293T was “no effect”. Further, the “binding (trapping)” value at HA-tagged MINA53 is reported as “not”. Also, the “combination index value with doxorubicin” value in the assay on U-87MG cells [1] is “higher than 1”. In addition, the “accumulation of cells” value with U-87MG cells [2] is given as “not”.
Take `O=C(O)c1cnc(SCCc2ccccc2)[nH]c1=O` [compound 9, 2-(Phenethylthio)-3,4-dihydro-4-oxopyrimidine-5-carboxylic Acid]: the “effect on cell viability, HT-29” value in the assay on HT-29 colon carcinoma was “only a marginal effect”. For the same compound, the “effect on cell viability, MNK-45” value in the assay on MNK-45 gastric carcinoma is recorded as “sensitive”. Moreover, in the assay on U-87MG malignant glioma, the “effect on cell viability, U-87MG” value was “sensitive”. Further, the “effect on cell viability, HeLa” value with HeLa cervical carcinoma was “sensitive”. Besides, in the assay with HEK293T, the “effect on cell viability, HEK293T” value is reported as “sensitivity”. In addition, the “binding (trapping)” value on HA-tagged MINA53 is listed as “increased binding”. In the assay with U-87MG cells [1], the “cell viability reduction in cotreatment with doxorubicin” value was “around 75%”; the “cell viability, single compound treatment” value is listed as “reduced cell viability in a dose-dependent manner”; the “sensitization of U-87MG cells to doxorubicin” value was “dose-dependent sensitization”; the “combination index value with doxorubicin” value was “less than 1”. In the assay with U-87MG cells [2], the “percentage of apoptotic cells (Sub-G1), with doxorubicin” value is recorded as “about 60%”; the “accumulation of cells” value is “induced accumulation of cells in the G2/M phase”; the “percentage of apoptotic cells (Sub-G1), compound alone” value is “about 30%”.
